# Measurements published in patent publication US8859615B2, “Compounds, compositions and methods for reducing toxicity and treating or preventing diseases” (priority 2008, dated 2014).
# Several values for one entry are separate records, joined by “and”; a condition that tells them apart may be missing. Equal entries are not always repeated. Where two headings read alike, the source gives them in different places.
# How the values were obtained:
# [1] = tested on: quinone reductase (NQO1) in Hepa 1c1c7 murine hepatoma cells; experiment: Phase 2 enzyme inducer activity (Prochaska microtiter plate bioassay); details: Hepa 1c1c7 cells
# Method: Pure panaxytriol was dissolved in dimethyl sulfoxide. Phase 2 enzyme inducer activity was measured using a rapid assay of activity of representative phase 2 enzyme in a cell line. This assay was originally developed by Prochaska and colleagues as in Prochaska H J, Santamaria A B, Talalay P. “Rapid detection of inducers of enzymes that protect against carcinogens.” Proc Natl Acad Sci US A 1992; 89:2394-2398, and has been further refined as in Fahey J W, Dinkova-Kostova A T, Stephenson K K, Talalay P. “The “Prochaska” microtiter plate bioassay for inducers of NQO1.” Methods Enzymol. 2004; 382:243-258, each of which are incorporated by reference in its entirety. Briefly, Hepa 1c1c7 murine hepatoma cells were grown in 96-well microtiter plates. Serial dilutions of the extracts or compounds which were assayed were added into the wells. After 48 hours, the cells were lysed and the activity of quinone reductase (NQO1) was assayed by the addition of a reaction mixture containing an NADPH-generating system, menadione and MTT. NQO1 catalyzes the reduction of menadione to menadiol by NADPH, and MTT is reduced nonenzymatically by menadiol, resulting in the formation of a blue color that can then be quantitated as in Prochaska H J, Santamaria A B. “Direct measurement of NAD(P)H:quinone reductase from cells cultured in microtiter wells: a screening assay for anticarcinogenic enzyme inducers.” Anal. Biochem. 1988; 169:328-336, which is incorporated by reference in its entirety. […] NQO1 activity and protein content of the lysate were measured in duplicate plates with an optical microtiter plate absorbance reader. […] One unit of inducer activity is defined as the amount that, when added to a single microtiter well, doubles the NQO1 specific activity. Sulforaphane and β-naphthoflavone were used as positive controls in each bioassay. […] NQO1 inducer activity was assayed as described herein, and is reported here as treated/control at different concentrations of ginseng extract or component per well. […] (+) Panaxytriol (molecular weight […]), (Δ) Protopanaxatriol (molecular weight 461), (◯) Korean red SUN GINSENG® extract. The reductase assay can also be performed as disclosed in PCT Publication No. WO 06/023821, the entire contents of which are hereby incorporated in the instant application.
# [2] = tested on: human lymphoblastic leukemic T-cell growth; experiment: Cytotoxic activity relative to stability during storage at −20° C. in DMSO (Table 10); format: cell-based; details: Homo sapiens, CCRF-CEM, 72 h, XTT, 72 hr
# Description: Without wishing to be bound by theory, the oxidized versions may be active metabolites. This theory provides an explanation of the delayed onset of therapeutic effects seen in the figures herein. The oxidized compounds may be active agents that are formed slowly upon metabolic oxidation. […] The active metabolites may explain the biphasic pharmacological properties of panaxytriol or Compound D that have been observed (FIGS. 9B, C, D; FIGS. 11D, E, F, and FIGS. 12D, E). […] Induction of the phase 2 enzymes may slow oxidation of the compounds (Ng et al., Tetrahedron Letters. 49: 7178-7179 (2008)).
# leukemic CCRF CEM cells = experiment: Precursor incorporation into DNA, RNA and protein (Table 9); format: cell-based, human
# Method: The radioactive tracer studies were carried out as described by Chou T C, et al. Cancer Res. 43: 3074-3079, 1983.
# [3] = tested on: CCRF-CEM/VBL100 vinblastine-resistant cells; experiment: In vitro cytotoxicity against vinblastine-resistant CCRF-CEM subline; format: cell-based, human; details: for IC50: Homo sapiens, CCRF-CEM, 72 h
# Method: (§1) The cytotoxicity IC50 of each compound was measured with the XTT assay using the 2,3-bis(2-methoxy-4-nitro-5-sulfophenyl)-5-[(phenylamino)carbonyl]-2H-tetrazolium hydroxide (XTT) microculture method as described in Scudiero et al., Cancer Res., 48:4827 (1988), the contents of which are hereby incorporated by reference in their entirety. The CCK-8 assay is a cell counting kit-8 (CCK-8) tetrazolium assay using a 96-well microplate (Dojindo Molecular Technologies, Inc., Rockville, Md.) (M. Ishiyama et al., Biol. Pharm. Bull. 19: 1518, 1996). Absorbance was measured by Powerwave a XS microplate spectrophotometer. This method described is considered a general method in vitro cytotoxicity studies.
# (§2) The data in Tables 2X, 3A-E, 4, 5, and 6 were obtained using the cell counting kit-8 (CCK-8) tetrazolium assay in a 96-well microplate. Five to seven concentrations of each compound in triplicate were used, and the IC50 values were determined by CompuSyn software automation (Chou T C. and Martin N. ComboSyn, Inc., 2006) based on the median-effect equation and plot (Chou T C. J. Theor. Biol. 59:235-276, 1976; Chou T C. Pharmacol. Rev. 58: 621-681, 2006). […] The r value defines the correlation coefficient of the median-effect plot which signifies the conformity to the mass-action law principle (Chou T C. J. Theor. Biol. 59:235-276, 1976; Chou T C. Pharmacol. Rev. 58:621-681, 2006). These parameters were determined by CompuSyn simulation (available at http://www.combosyn.com).
# (§3) CCRF-CEM human T-cell acute lymphoblastic leukemia cells and the corresponding vinblastine-resistant cells (CCRF-CEM/VBL100) were cultured at an initial density of 5×10^4 cells per milliliter. The cultured cells were maintained in a 5% CO2-humidified atmosphere at 37° C. in RPMI medium 1640 (GIBCO/BRL) containing penicillin (100 units/mL), streptomycin (100 μg/mL, GIBCO/BRL), and 10% heat-inactivated fetal bovine serum. The cytotoxicity of each Compound of the invention was measured using the 2,3-bis(2-methoxy-4-nitro-5-sulfophenyl)-5-[(phenylamino)carbonyl]-2H-tetrazolium hydroxide (XTT) microculture method as described in Scudiero et al., Cancer Res., 48:4827 (1988), the contents of which are hereby incorporated by reference in their entirety.
# (§4) Absorbance was measured by Powerwave XS microplate spectrophotometer.
# [4] = tested on: CCRF-CEM human T-cell acute lymphoblastic leukemia cells; experiment: In vitro cytotoxicity against CCRF-CEM (XTT / CCK-8 tetrazolium assay, 72 hr); details: Homo sapiens, CCRF-CEM, 72 h
# Method: as §1, §2, §3, §4
# [5] = tested on: human mammary carcinoma MX-1 cells; experiment: In vitro drug combination (median-effect / combination index, DRI) against MX-1 cell growth (Tables 5, 5A); format: cell-based; details: for IC50: MX-1, 72 hrs
# Method: as §2
# Efficacy of panaxytriol in combination with Fludelone (an illustrative tubulin-binding anticancer agent) was measured according to procedures described in more detail by Chou et al. (1984) Adv. Enz. Regul., 22:27-55, Chou et al. (1994) Nat'l Cancer Inst., 86:1517-1524, and Chou (2006) Pharmacological Reviews, […]:621-681. Software packages used for data analyses were CalcuSyn for Windows (Chou and Hayball., Multiple-drug dose effect analyzer and manual, Biosoft, Cambridge Place, Cambridge, U.K (1996)) and CompuSyn for Drug Combinations (Chou and Martin, Software for determination of synergism and antagonism and determination of IC50, ED50 and LD50, ComboSyn Inc., Paramus, N.J. (2005)). The entire contents of each of the above references are incorporated by reference in their entireties. […] DRI quantitates synergy as how many fold less of a dose is required to obtain a given level of effect for a combination of drugs versus the same effect for an individual component of the combination.
# [6] = for Total score: Table 11A, First Round, days 09-27; for 1st & 2nd Cycle Total Score / 2nd Cycle Total Score: Table 11C; for toxicity score (neurotoxicity): nude, mouse, in vivo
# Method: The “toxicity score” (or “Total Score” in Tables 11A-C) is determined by adding the neurotoxicity ratings. The ratings used are: Normal (−, a toxicity score of 0); slightly unable to balance (+, a toxicity score of 1); hind-leg paralysis (++, a toxicity score of 2); and 4-leg paralysis and death (+++, none observed).
# [7] = tested on: CCRF-CEM subline resistant to TAXOL; experiment: In vitro cytotoxicity against TAXOL-resistant CCRF-CEM subline; format: cell-based, human; details: Table 3A-2
# Method: as §2, §4
# [8] = Method: The experimental procedure for FIG. 14 was carried out similarly to that in FIG. 1. * means P<0.1 and ** means P<0.05. Body weight was calculated as described for FIGS. 1 and 4-7.
# The experiments were performed as indicated for FIG. 14, with Compound (K) being administered orally. Compound K was administered on the days indicated by the arrows at the top of the graph, and paclitaxel was administered on the days indicated by the arrows on the bottom of the graph. Body weight was calculated as described for FIGS. 1, 4-7, 14 and 15. * means P<0.1 and ** means P<0.05.
# [9] = Table 5, fold dose reduction allowed in the Panaxytriol + Fludelone combination
smiles,measurement,setting,value
CC(C)=CCCC(C)(O)[C@H]1CC[C@]2(C)[C@@H]1[C@H](O)C[C@@H]1[C@@]3(C)CC[C@H](O)C(C)(C)[C@@H]3CC[C@]12C (stereo in doubt) [protopanaxadiol],significant cytotoxicity observed above,[1],above 5 μg/well
C=CC(=O)C#CC#CC[C@@H](O)[C@H](O)CCCCCCC [Compound (B)],IC50,"[2]; read-out: IC50 in μM CCRF-CEM, Table 10, Aug. 22, 2003 (Stored), same solution kept at −20° C. in DMSO",4.78 µM
same,IC50,"[2]; read-out: IC50 in μM CCRF-CEM, Table 10, Jul. 25, 2003 (Fresh)",0.72 ± 0.14 µM
same,IC50,"[2]; read-out: IC50 in μM CCRF-CEM/VBL, Table 10, Aug. 22, 2003 (Stored), same solution kept at −20° C. in DMSO",5.29 µM
same,IC50,"[2]; read-out: IC50 in μM CCRF-CEM/VBL, Table 10, Jul. 25, 2003 (Fresh)",0.95 µM
same,[3H]-AdR → RNA (% Activation ↑ or Inhibition ↓),"leukemic CCRF CEM cells; 15 μM, 15 min, ↑ (activation)",30.7 ↑ %
same,[3H]-dThd → DNA (% Activation ↑ or Inhibition ↓),"leukemic CCRF CEM cells; 15 μM, 15 min, ↑ (activation)",26.1 ↑ %
same,[3H]-AdR → RNA (% Activation ↑ or Inhibition ↓),"leukemic CCRF CEM cells; 100 μM, 60 min, ↓ (inhibition)",82.0 ↓ %
same,[3H]-dThd → DNA (% Activation ↑ or Inhibition ↓),"leukemic CCRF CEM cells; 100 μM, 60 min, ↓ (inhibition)",78.2 ↓ %
same,inhibition at 15 µM,"leukemic CCRF CEM cells; Homo sapiens, CCRF-CEM, 15 μM, 15 min, ↓ (inhibition), read-out: [3H] Leu → Protein (% Activation ↑ or Inhibition ↓)",62.8%
same,inhibition at 100 µM,"leukemic CCRF CEM cells; Homo sapiens, CCRF-CEM, 100 μM, 60 min, ↓ (inhibition), read-out: [3H] Leu → Protein (% Activation ↑ or Inhibition ↓)",78.2%
same,IC50,[3]; read-out: IC50 CCRF ± CEM/VBL,6.29 ± 1.41 µM
same,fold resistance in brackets (IC50 CCRF-CEM/VBL vs CCRF-CEM),[3]; Table 3,1.40 x
same,IC50,"[4]; read-out: IC50 CCRF-CEM, Table 3, XTT, 72-hour",4.49 ± 0.41 µM
C/C(=C\c1csc(C)n1)[C@@H]1C/C=C(/C(F)(F)F)C/C=C/[C@H](C)[C@H](O)[C@@H](C)C(=O)C(C)(C)[C@@H](O)CC(=O)O1 [Fludelone],IC50,"[5]; Table 5, Panaxytriol + Fludelone combination (1.199 + 0.0012), read-out: Dose-effect parameter Dm (IC50) of the component in the combination",1.2 nM
same,IC50,"[5]; Table 5, each drug alone, read-out: Dose-effect parameter Dm (IC50)",2.7 nM
same,Dose-Reduction Index (DRI) at IC50,[5]; [9],2.27
same,Dose-Reduction Index (DRI) at IC75,[5]; [9],7.02
same,Dose-Reduction Index (DRI) at IC90,[5]; [9],21.69
same,Dose-Reduction Index (DRI) at IC95,[5]; [9],46.73
same,dose-reduction index (DRI),"[5]; panaxytriol + Fludelone combination, MX-1 cells",2.27-46.73
CC(=O)O[C@H]1C(=O)[C@@]2(C)[C@H]([C@H](OC(=O)c3ccccc3)[C@]3(O)C[C@H](OC(=O)[C@H](O)[C@@H](NC(=O)c4ccccc4)c4ccccc4)C(C)=C1C3(C)C)[C@]1(OC(C)=O)CO[C@@H]1C[C@@H]2O [paclitaxel],Total score,[6]; per mouse,8 (3×) and 2 (2×) and 0 and 5 and 3 and 10 and 7
same,Total score,[6]; whole group of 10 mice,53
same,1st & 2nd Cycle Total Score,"[6]; per mouse, listed as Taxol",33 (2×) and 4 (2×) and 15 and 35 and 18 and 34 and 27 and 31
same,2nd Cycle Total Score,"[6]; per mouse, listed as Taxol",25 (2×) and 2 (2×) and 15 (2×) and 30 and 24 and 20 and 23
same,1st & 2nd Cycle Total Score,[6]; whole group of 10 mice,234
same,2nd Cycle Total Score,[6]; whole group of 10 mice,181
same,1st Total score (group),"[6]; days 12-26, sum over 11 mice of the group, first round of paclitaxel",13
same,1st Total score (per mouse),"[6]; days 12-26, sum per individual mouse, first round of paclitaxel",3 and 2 (3×) and 4
same,2nd Total Score up to day 42 (group),"[6]; days 28-42, sum over 11 mice of the group, second round of paclitaxel",79
same,2nd Total Score up to day 42 (per mouse),"[6]; days 28-42, sum per individual mouse, second round of paclitaxel",8 and 6 (3×) and 9 (3×) and 7 and 5 and 4 and 10
same,toxicity score (neurotoxicity),[6]; 27 day,2
same,toxicity score (neurotoxicity),[6]; 59 day,6
same,IC50,"[7]; Homo sapiens, CCRF-CEM, CCK-8, 72-hr exposure, read-out: CCRF-CEM/TAXOL (IC50 in μM)",1.12 µM
same,Fold of resistance (IC50 ratio CCRF-CEM/TAXOL vs CCRF-CEM),[7],860 fold
same,IC50,"[3]; Table 3A-2, CCK-8, 72-hr exposure, read-out: CCRF-CEM/VBL (IC50 in μM)",2.26 µM
same,Fold of resistance (IC50 ratio CCRF-CEM/VBL vs CCRF-CEM),[3]; Table 3A-2,1741 fold
same,complete remission (CR),"[8]; FIG. 14, paclitaxel 25 mg/kg iv Q2D×8, with or without Compound K 30 mg/kg iv Q4D×14",10/10
same,BW loss,"[8]; mouse, in vivo",approximately 25%
same,decrease in BW,"[8]; mouse, in vivo",13.2%
same,IC50,"[4]; read-out: CCRF-CEM (IC50 in μM), Table 3A-2, CCK-8, 72-hr exposure",0.0013 µM
